Source: patent US20050026949A1, “Methods of therapeutic treatment using amounts of retinoids without regard to body weight” (Allergan, Inc., priority 2003, published 2005)

What was measured:
[1] = test system: patients treated for psoriasis; assay: Phase 3 studies of orally administered tazarotene for psoriasis: adverse events (Table 1); type: in vivo, human; details: Taz 4.5 mg
Method: A series of Phase 3 studies are conducted on orally administered tazarotene for the treatment of psoriasis. Adverse events (side effects) are monitored. In addition, published data for acitretin's side effects are also considered.

[2] = test system: patients treated for acne; assay: Studies of orally administered tazarotene for acne: adverse events (Table 2); type: in vivo, human; details: combined data from Studies 1 and 2 (N = 223)
Method: Studies are conducted on orally administered tazarotene for the treatment of acne. Adverse events (side effects) are monitored.

[3] = Study 3, treated with Tazarotene for 3 months (N = 220)
[4] = Study 3, treated with Tazarotene for 6 months (N = 92)
[5] = combined data from Studies 1 and 2 (N = 348)

In the case of CCOC(=O)c1ccc(C#Cc2ccc3c(c2)C(C)(C)CCS3)nc1 [tazarotene], the Alopecia [1, 3] is reported as 1 (0.5) NUMBER OF (%) OF PATIENTS, the Arthralgia [1, 3] is reported as 28 (12.7) NUMBER OF (%) OF PATIENTS and the Atrophy of skin [1, 3] is reported as 0 (0.0) NUMBER OF (%) OF PATIENTS. For the same compound, the Back pain [1, 3] was 7 (3.2) NUMBER OF (%) OF PATIENTS, the Cheilitis [1, 3] was 149 (67.7) NUMBER OF (%) OF PATIENTS and the “Dry Skin” value [1, 3] was 47 (21.4) NUMBER OF (%) OF PATIENTS. For the same compound, the “Dry mouth/Oral dryness” value [1, 3] was 11 (5.0) NUMBER OF (%) OF PATIENTS, the Epistaxis [1, 3] was 1 (0.5) NUMBER OF (%) OF PATIENTS and the “Erythematous rash/Erythema” value [1, 3] was 0 (0.0) NUMBER OF (%) OF PATIENTS. The Hyperesthesia [1, 3] was 0 (0.0) NUMBER OF (%) OF PATIENTS, the “Nail Disorder” value [1, 3] was 1 (0.5) NUMBER OF (%) OF PATIENTS and the Paresthesia [1, 3] was 3 (1.4) NUMBER OF (%) OF PATIENTS. The Paronychia/Nail disorder [1, 3] was 1 (0.5) NUMBER OF (%) OF PATIENTS, the Pruritus [1, 3] was 11 (5.0) NUMBER OF (%) OF PATIENTS and the Rhinitis [1, 3] was 0 (0.0) NUMBER OF (%) OF PATIENTS. For the same compound, the Rigors/Chills [1, 3] was 1 (0.5) NUMBER OF (%) OF PATIENTS, the “Skin peeling/Desquamation” value [1, 3] was 3 (1.4) NUMBER OF (%) OF PATIENTS and the “Sticky skin/Skin disorder” value [1, 3] was 0 (0.0) NUMBER OF (%) OF PATIENTS. The Xerophthalmia/Eye disorder [1, 3] was 3 (1.4) NUMBER OF (%) OF PATIENTS, the Alopecia [1, 4] was 5 (5.4) NUMBER OF (%) OF PATIENTS and the Arthralgia [1, 4] was 30 (32.6) NUMBER OF (%) OF PATIENTS. The Atrophy of skin [1, 4] was 0 (0.0) NUMBER OF (%) OF PATIENTS, the Back pain [1, 4] was 10 (10.9) NUMBER OF (%) OF PATIENTS and the Cheilitis [1, 4] was 65 (70.7) NUMBER OF (%) OF PATIENTS. The “Dry Skin” value [1, 4] was 24 (26.1) NUMBER OF (%) OF PATIENTS, the “Dry mouth/Oral dryness” value [1, 4] was 2 (2.2) NUMBER OF (%) OF PATIENTS and the Epistaxis [1, 4] was 0 (0.0) NUMBER OF (%) OF PATIENTS. For the same compound, the “Erythematous rash/Erythema” value [1, 4] was 0 (0.0) NUMBER OF (%) OF PATIENTS, the Hyperesthesia [1, 4] was 0 (0.0) NUMBER OF (%) OF PATIENTS and the “Nail Disorder” value [1, 4] was 1 (1.1) NUMBER OF (%) OF PATIENTS. For the same compound, the Paresthesia [1, 4] was 1 (1.1) NUMBER OF (%) OF PATIENTS, the Paronychia/Nail disorder [1, 4] was 1 (1.1) NUMBER OF (%) OF PATIENTS and the Pruritus [1, 4] was 3 (3.3) NUMBER OF (%) OF PATIENTS. The Rhinitis [1, 4] was 0 (0.0) NUMBER OF (%) OF PATIENTS, the Rigors/Chills [1, 4] was 1 (1.1) NUMBER OF (%) OF PATIENTS and the “Skin peeling/Desquamation” value [1, 4] was 1 (1.1) NUMBER OF (%) OF PATIENTS. The “Sticky skin/Skin disorder” value [1, 4] was 0 (0.0) NUMBER OF (%) OF PATIENTS, the Xerophthalmia/Eye disorder [1, 4] was 1 (1.1) NUMBER OF (%) OF PATIENTS and the Alopecia [1, 5] was 1 (0.3) NUMBER OF (%) OF PATIENTS. For the same compound, the Arthralgia [1, 5] was 60 (17.2) NUMBER OF (%) OF PATIENTS, the Atrophy of skin [1, 5] was 0 (0.0) NUMBER OF (%) OF PATIENTS and the Back pain [1, 5] was 16 (4.6) NUMBER OF (%) OF PATIENTS. The Cheilitis [1, 5] was 228 (65.5) NUMBER OF (%) OF PATIENTS, the “Dry Skin” value [1, 5] was 82 (23.6) NUMBER OF (%) OF PATIENTS and the “Dry mouth/Oral dryness” value [1, 5] was 11 (3.2) NUMBER OF (%) OF PATIENTS. For the same compound, the Epistaxis [1, 5] was 2 (0.6) NUMBER OF (%) OF PATIENTS, the “Erythematous rash/Erythema” value [1, 5] was 2 (0.6) NUMBER OF (%) OF PATIENTS and the Hyperesthesia [1, 5] was 0 (0.0) NUMBER OF (%) OF PATIENTS. For the same compound, the “Nail Disorder” value [1, 5] was 2 (0.6) NUMBER OF (%) OF PATIENTS, the Paresthesia [1, 5] was 7 (2.0) NUMBER OF (%) OF PATIENTS and the Paronychia/Nail disorder [1, 5] was 2 (0.6) NUMBER OF (%) OF PATIENTS. For the same compound, the Pruritus [1, 5] was 21 (6.0) NUMBER OF (%) OF PATIENTS, the Rhinitis [1, 5] was 8 (2.3) NUMBER OF (%) OF PATIENTS and the Rigors/Chills [1, 5] was 9 (2.6) NUMBER OF (%) OF PATIENTS. The “Skin peeling/Desquamation” value [1, 5] was 3 (0.9) NUMBER OF (%) OF PATIENTS, the “Sticky skin/Skin disorder” value [1, 5] was 1 (0.3) NUMBER OF (%) OF PATIENTS and the Xerophthalmia/Eye disorder [1, 5] was 8 (2.3) NUMBER OF (%) OF PATIENTS. For the same compound, the Cheilitis [2] was 134 (60.1) NUMBER OF (%) OF PATIENTS, the Conjunctivitis [2] was 0 (0.0) NUMBER OF (%) OF PATIENTS and the “Desquamation central face/Desquamation” value [2] was 1 (0.4) NUMBER OF (%) OF PATIENTS. For the same compound, the Dry Skin [2] was 79 (35.4) NUMBER OF (%) OF PATIENTS, the Dry nose [2] was 7 (3.1) NUMBER OF (%) OF PATIENTS and the Epistaxis [2] was 6 (2.7) NUMBER OF (%) OF PATIENTS. For the same compound, the “Fingertip peeling/Desquamation” value [2] was 1 (0.4) NUMBER OF (%) OF PATIENTS, the Headache [2] was 26 (11.7) NUMBER OF (%) OF PATIENTS and the Irritation of eyes [2] was 0 (0.0) NUMBER OF (%) OF PATIENTS. The “Joint pain/Arthralgia” value [2] was 18 (8.1) NUMBER OF (%) OF PATIENTS, the Peeling/Desquamation [2] was 1 (0.4) NUMBER OF (%) OF PATIENTS and the Pruritus [2] was 10 (4.5) NUMBER OF (%) OF PATIENTS. For the same compound, the Rash-dermatitis/Rash [2] was 7 (3.1) NUMBER OF (%) OF PATIENTS, the “Red Scaly face/Desquamation” value [2] was 1 (0.4) NUMBER OF (%) OF PATIENTS and the “Skin fragility/Skin disorder” value [2] was 1 (0.4) NUMBER OF (%) OF PATIENTS.
